The results in this text go back to patent EP4603105A1, “PHARMACEUTICAL COMPOSITION CONTAINING CYCLIC COMPOUND HAVING SELECTIVE KRAS INHIBITORY EFFECT AGAINST HRAS AND NRAS” (CHUGAI SEIYAKU KABUSHIKI KAISHA, priority 2022, dated 2024).

pIC50: −log10 of the molar value. Where a SMILES comes first, the peptide text is derived from it. Bridges are numbered along the chain shown (N, C = ends). [ ]: non-standard residue; d: D form. hPhe(3-Cl-4-CF3) = N[C@@H](CCc1ccc(C(F)(F)F)c(Cl)c1)C(=O)O; NPrPhe(4-CF3) = CCCN[C@@H](Cc1ccc(C(F)(F)F)cc1)C(=O)O; NMeGly(cPent) = CN[C@H](C(=O)O)C1CCCC1; Pro(4,4-F2) = O=C(O)[C@@H]1CC(F)(F)CN1; Hyp = O=C(O)[C@@H]1C[C@@H](O)CN1; NMeL = CN[C@@H](CC(C)C)C(=O)O; Ac5c = NC1(C(=O)O)CCCC1; Ac4c = NC1(C(=O)O)CCC1; NEtG = CCNCC(=O)O; Sar = CNCC(=O)O

For test [1], the system named is human lung cancer strain NCI-H441. The class given is cell-based. The gist of the method: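 Proliferation was scored by […] measured after the reagent was added to cultures kept at 37°C in 5% carbon dioxide.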
Another test has as its target HRAS wild-type protein (Homo sapiens, UniProt P01112). As to the kind of experiment: Binding to HRAS by surface plasmon resonance (SPR), KD and KD ratio to KRAS. The note with it: ratio of KD for HRAS wild-type protein to KD for KRAS. A digest of the protocol: (§1)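 SPR, 30°C: Avi-biotin RAS·GDP captured via Biotin CAPture (~100–300 RU); running buffer HBS pH 7.4, 1 mM DTT, 10 mM MgCl2, 0.01% Tween 20, 10 µM GDP, 4% DMSO. Single-cycle kinetics, 100 µL/min, 75 s injections; 1:1 model → KD.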
In general terms: In SPR one partner is held on a chip, and binding of the other changes the refractive index at the surface.

Test [2] addresses GDP-bound NRAS wild-type protein (Homo sapiens, UniProt P01111). As to the kind of experiment: Binding to NRAS by surface plasmon resonance (SPR), KD and KD ratio to KRAS. The note with it: ratio of KD for GDP-bound NRAS wild-type protein to KD for KRAS. The gist of the method: as §1

HRAS wild-type protein, sequence (P01112 whole entry): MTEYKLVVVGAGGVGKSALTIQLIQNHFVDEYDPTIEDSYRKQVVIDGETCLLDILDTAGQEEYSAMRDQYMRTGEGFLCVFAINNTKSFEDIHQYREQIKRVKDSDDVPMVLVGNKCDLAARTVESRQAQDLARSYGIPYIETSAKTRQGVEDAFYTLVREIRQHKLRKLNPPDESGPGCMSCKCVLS
GDP-bound NRAS wild-type protein, sequence (P01111 whole entry): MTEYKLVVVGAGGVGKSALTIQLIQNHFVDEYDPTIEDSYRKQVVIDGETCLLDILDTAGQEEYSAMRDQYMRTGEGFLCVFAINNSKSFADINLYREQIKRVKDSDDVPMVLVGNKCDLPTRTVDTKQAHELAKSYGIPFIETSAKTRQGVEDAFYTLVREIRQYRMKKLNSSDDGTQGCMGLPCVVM

For orientation: pIC50 means the IC50 on a negative log10 scale, so that one unit is a factor of ten. Turning to `CCCN1C(=O)CN(C)C(=O)CNC(=O)[C@H]([C@@H](C)CC)NC(=O)[C@H](CC(C)C)N(C)C(=O)C[C@@H](C(=O)N(C)C)NC(=O)[C@H](C2CCCC2)N(C)C(=O)C2(CCC2)NC(=O)[C@@H]2CC(F)(F)CN2C(=O)[C@H](CCc2ccc(C(F)(F)F)c(Cl)c2)NC(=O)CN(C)C(=O)[C@@H]1Cc1ccc(C(F)(F)F)cc1` [PP0364] ([NMeL]IG[Sar][NPrPhe(4-CF3)][Sar][hPhe(3-Cl-4-CF3)][Pro(4,4-F2)][Ac4c][NMeGly(cPent)]D-NMe2; lactam N-11), in test [1], the pIC50 is 6.99. Moreover, the “HRAS /KRAS” value at HRAS wild-type protein was “B (a compound having 3 or more and less than 10 is denoted as B)”. For the same compound, the “NRAS /KRAS” value in test [2] was “B (a compound having 3 or more and less than 10 is denoted as B)”.
For the compound `CCCN1C(=O)CN(C)C(=O)CNC(=O)[C@H]([C@@H](C)CC)NC(=O)[C@H](CC(C)C)N(C)C(=O)C[C@@H](C(=O)N(C)C)NC(=O)[C@H](C2CCCC2)N(C)C(=O)C2(CCCC2)NC(=O)[C@@H]2C[C@@H](OCC)CN2C(=O)[C@H](CCc2ccc(C(F)(F)F)c(Cl)c2)NC(=O)CN(C)C(=O)[C@@H]1Cc1ccc(C(F)(F)F)cc1` [PP0365] ([NMeL]IG[Sar][NPrPhe(4-CF3)][Sar][hPhe(3-Cl-4-CF3)][Hyp](Et)[Ac5c][NMeGly(cPent)]D-NMe2; lactam N-11), the pIC50 in test [1] was 7.37. The “HRAS /KRAS” value on HRAS wild-type protein is “B (a compound having 3 or more and less than 10 is denoted as B)”. Moreover, the “NRAS /KRAS” value in test [2] was “B (a compound having 3 or more and less than 10 is denoted as B)”.
In test [1], `CCCN1C(=O)CN(C)C(=O)CNC(=O)[C@H]([C@@H](C)CC)NC(=O)[C@H](CC(C)C)N(C)C(=O)C[C@@H](C(=O)N(C)C)NC(=O)[C@H](C2CCCC2)N(C)C(=O)C2(CCC2)NC(=O)[C@@H]2C[C@@H](OCC)CN2C(=O)[C@H](CCc2ccc(C(F)(F)F)c(Cl)c2)NC(=O)CN(C)C(=O)[C@@H]1Cc1ccc(C(F)(F)F)cc1` [PP0366] ([NMeL]IG[Sar][NPrPhe(4-CF3)][Sar][hPhe(3-Cl-4-CF3)][Hyp](Et)[Ac4c][NMeGly(cPent)]D-NMe2; lactam N-11) gave a pIC50 of 7.10. The “HRAS /KRAS” value on HRAS wild-type protein is “B (a compound having 3 or more and less than 10 is denoted as B)”. Besides, the “NRAS /KRAS” value in test [2] was “B (a compound having 3 or more and less than 10 is denoted as B)”.
For the compound `CCCN1C(=O)CN(C)C(=O)CN(CC)C(=O)[C@H]([C@@H](C)CC)NC(=O)[C@H](CC(C)C)N(C)C(=O)C[C@@H](C(=O)N(C)C)NC(=O)[C@H](C2CCCC2)N(C)C(=O)C2(CCCC2)NC(=O)[C@@H]2CCCN2C(=O)[C@H](CCc2ccc(C(F)(F)F)c(Cl)c2)NC(=O)CN(C)C(=O)[C@@H]1Cc1ccc(C(F)(F)F)cc1` [PP0367] ([NMeL]I[NEtG][Sar][NPrPhe(4-CF3)][Sar][hPhe(3-Cl-4-CF3)]P[Ac5c][NMeGly(cPent)]D-NMe2; lactam N-11), the pIC50 in test [1] was 7.00. Further, the “HRAS /KRAS” value on HRAS wild-type protein was “B (a compound having 3 or more and less than 10 is denoted as B)”. For the same compound, in test [2], the “NRAS /KRAS” value is “B (a compound having 3 or more and less than 10 is denoted as B)”.
On to `CCCN1C(=O)CN(C)C(=O)CN(CC)C(=O)[C@H]([C@@H](C)CC)NC(=O)[C@H](CC(C)C)N(C)C(=O)C[C@@H](C(=O)N(C)C)NC(=O)[C@H](C2CCCC2)N(C)C(=O)C2(CCC2)NC(=O)[C@@H]2CCCN2C(=O)[C@H](CCc2ccc(C(F)(F)F)c(Cl)c2)NC(=O)CN(C)C(=O)[C@@H]1Cc1ccc(C(F)(F)F)cc1` [PP0368] ([NMeL]I[NEtG][Sar][NPrPhe(4-CF3)][Sar][hPhe(3-Cl-4-CF3)]P[Ac4c][NMeGly(cPent)]D-NMe2; lactam N-11), for which the pIC50 in test [1] is 6.94. The “HRAS /KRAS” value on HRAS wild-type protein is “B (a compound having 3 or more and less than 10 is denoted as B)”. Further, in test [2], the “NRAS /KRAS” value was “B (a compound having 3 or more and less than 10 is denoted as B)”.
